row,Compound,melting point [°C]
1,CCn1c2ccccc2c2cc(N(c3ccccc3)c3ccc(-c4ccc(N(c5ccccc5)c5ccc6c(c5)c5ccccc5n6CC)cc4)cc3)ccc21,250 to 252
2,Cc1cccc(-c2[nH]c(C(C)C)nc2-c2cccc(-c3cccc(S(N)(=O)=O)c3)c2)n1,123 to 126
3,O=C1CCCc2cc(CCN3CCN(c4nsc5ccccc45)CC3)ccc2N1,173 to 174
4,COc1cc(OC)nc(C2OC(=O)c3c(-c4cccs4)ccnc32)n1 (stereo not drawn),120 to 123
5,CC(C)SN1N=C(c2ccccc2)C(SC(C)C)(SC(C)C)C1=O,66 to 67
6,CCOC(=O)C(=C1SC=C(O)S1)S(C)(=O)=O,145 to 147
7,COc1cc(I)c(C=O)cc1OC(C)C,75 to 76
8,CC(=O)c1cccc(-c2ncccc2OC2SCC(O)C(O)C2O)c1 (stereo not drawn),128 to 133
9,N#CCN1CCc2ccccc2C(Oc2ccc(C(F)(F)F)cc2)C1 (stereo not drawn),125 to 129
10,COC(=O)C1CCN(c2ccc3nc4[nH]c(=O)[nH]c4cc3c2)CC1,> 310
11,C=C(c1ccc(N(C)C)cc1)c1ccc(N2CCCC2)cc1C,90 to 93
12,CCOC(=O)c1cc(CC)sc1Nc1cc(F)ccc1[N+](=O)[O-],87 to 88
13,COC1=C(OC)C(=O)C(CCCCC#CCCCCO)=C(C)C1=O,52 to 53
14,CCOC(=O)Cc1ccc(C(=O)c2ccc(C)cc2)n1C,70 to 71
15,Cc1ccc(-c2ccc(C)c(C)n2)cc1,76
16,O=C(O)CCc1cn(Cc2ccc3cc(OCc4cccnc4)ccc3c2)cc1-c1ccccc1,158 to 159
17,CN(C)C=Nc1ccc(I)cc1C#N,53 to 55
18,N#Cc1cccc(OCCc2c[nH]cn2)c1,189 to 190
19,CCOC(=O)/C=C/c1nc(COc2ccc(COc3nn(-c4ccccc4)cc3C=O)cc2OC)c(C)o1,150 to 151
20,CCn1c(=O)c2c(N3CCN(C)CC3)cc(Cl)cc2n(Cc2ccccc2)c1=O,155 to 159
21,COC(=O)c1nc(N)sc1-c1ccccc1,208
22,Cc1nc(Nc2ccc3[nH]ccc3c2)c2sc(-c3ccccc3)cc2n1,205 to 210
23,CCCCCOc1ccc(CC(C)C(=O)Oc2ccc(-c3ccc(CCC)cc3)cc2)cc1 (stereo not drawn),84 to 84.5
24,CCOC(=O)Cc1nc(-c2ccc(OC)cc2)oc1-c1ccco1,64 to 66
25,N#Cc1cc(C#N)cc(Oc2nccc(Oc3cc(Cl)cc(Cl)c3)n2)c1,156

row,Compound,melting point [°C]
1,Cc1ccc(NC(=O)c2ccc(CN3CCN(C)CC3)c(C(F)(F)F)c2)cc1Nc1nc(-c2ccncc2)cs1,226 to 227
2,C/C(=N\OCCBr)[C@H]1CC[C@H]2[C@@H]3CCC4=CC(=O)CC[C@]4(C)[C@H]3CC[C@]12C,96 to 98
3,O=C(O)CC[C@@H](Cc1cn(Cc2ccccc2)c2ccccc12)NC(=O)CCCCCCc1ccccc1,130 to 132
4,CC(C)C[C@H](NC(=O)OC(c1ccccc1)c1ccccc1)C(=O)Oc1c(Cl)c(Cl)c(Cl)c(Cl)c1Cl,84 to 86
5,CC1(Br)CS(=O)C2C(NC(=O)Cc3ccccc3)C(=O)N2C1C(=O)OCC(Cl)(Cl)Cl (stereo not drawn),159 to 161
6,CCOC(=O)C1CC(=O)c2nc(C)n(C)c2C1 (stereo not drawn),148 to 150
7,O=C1NN=C(c2ccc(NC(=O)C3CC3(Cl)Cl)cc2)C2CC12 (stereo not drawn),264 to 265
8,CC(C)(C)OC(=O)COc1cc(NC(=O)OC(C)(C)C)c([N+](=O)[O-])cc1C#Cc1ccccc1,130
9,COc1ccc2cc(-c3nc(-c4ccc(C)cc4)no3)c(=O)oc2c1,227
10,CCOC(=O)C=Cc1cc(Br)cc(C(O)c2ccc(F)cc2)c1 (stereo not drawn),82 to 84
11,CC(=O)Oc1cc2c(cc1OC(C)=O)OCC(c1ccccc1)C2 (stereo not drawn),102
12,CCCc1nc(C)n2nc(SC)nc2c1Cc1ccc([N+](=O)[O-])cc1,130
13,CC(n1cncn1)C(O)(Cn1cncn1)c1ccc(F)cc1 (stereo not drawn),103 to 106
14,COC1=C(N=O)C(=O)NC1=Cc1ccccc1,172
15,CC(C)(C)OC(=O)CNc1nccc(-c2nc(=O)c3ccccc3s2)n1,247 to 248
16,COc1ccc(-c2cccc(O)c2)cc1,76.5 to 78
17,CC(C)Oc1ccc(C=C2CCn3c2nc2cc(NC(=O)C(=O)O)ccc2c3=O)cc1,225 to 229
18,CC(CO)CCCC(C)C1CCC2C3CC=C4C(C)(C)C(O)CCC4(C)C3CCC12C (stereo not drawn),174 to 175
19,O=C1CCC(c2ccc(-n3cnc4c3CCCC4)cc2)=NN1,296 to 297
20,C=C(Cl)CSC(=S)Nc1ccc(Cl)cc1C,88 to 90.5
21,C[C@@H](O)[C@H](NC(=O)Cc1ccccc1)C(=O)O,118 to 120
22,Cn1c(COc2ccc(CC3SC(=O)NC3=O)cc2)nc2ccc(Oc3ccc(NC(=O)c4cc(C(C)(C)C)c(O)c(C(C)(C)C)c4)cc3)cc21 (stereo not drawn),160 to 162
23,CC(Cc1ccccc1)(C(=O)O)S(=O)(=O)c1cccs1 (stereo not drawn),116 to 117
24,CCOC(=O)c1c2ccc(CC(=O)NOCC(=O)N3CCCC3)ccc-2c(C(=O)OCC)c1N,168 to 170
25,CCCCCCCCCCCC#Cc1ccccc1C=C(C(=O)OCC)P(=O)(O)O,68 to 69

row,Compound,melting point [°C]
1,COc1ccccc1N1CCN(CCCNC(=O)c2cc(N)cc3c(=O)c(C)c(-c4ccccc4)oc23)CC1,218 to 219
2,CCOC(=O)C1=C(C)NN=C(CC)C1c1cccc2ccccc12 (stereo not drawn),122
3,O=C(O)C1(C(=O)O)CC2CCC2C1 (stereo not drawn),161 to 170
4,C[C@H](C(=O)NC[C@H](COC(=O)C(C)(C)C)Cc1ccccc1)c1ccc(NS(C)(=O)=O)c(F)c1,40 to 42
5,Cc1c(O)c(C(C)(C)C)c(Cc2cc(C(C)(C)C)c(O)c(C(C)(C)C)c2)c(C)c1Cc1cc(C(C)(C)C)c(O)c(C(C)(C)C)c1,140
6,N#Cc1ccc(CN2CCCNC2=C[N+](=O)[O-])cn1,214 to 216
7,CC(O)=C(C(=O)OC(c1ccccc1)c1ccccc1)N1C(=O)C(NC(=O)COc2ccccc2)C1SS(=O)(=O)c1ccc(C)cc1 (stereo not drawn),150 to 152
8,COC(=O)CCC(=O)c1ccc(Br)cc1,49 to 51
9,Nc1ccc(SCc2cnc3ccccn23)cc1,119 to 121
10,CC(=O)Nc1ccc(OCC(O)CCCl)cc1 (stereo not drawn),124 to 127
11,O=S(=O)(NCC1CCN(C[C@H]2COc3ccc4[nH]ccc4c3O2)CC1)c1ccccn1,86 to 88
12,O=C(NCCO)/C(=C/c1ccc(OC(F)F)cc1)NC(=O)c1ccc(OCCc2ccc(Cl)cc2)cc1,160 to 162
13,Cc1oc(-c2ccccc2)nc1COc1ccc2c(-c3ccccc3)c(CCl)oc2c1,129 to 130
14,NC(=NN=Cc1c(Cl)cccc1Cl)Nc1c(Cl)cccc1Cl,230 to 231
15,CCOC(Cc1ccc(OCCN(C)c2nc3ccccc3o2)cc1)c1nc(C)no1 (stereo not drawn),61 to 62
16,CCCCCCCCCCCCCCCCC(O)CCCOC1CCCCO1 (stereo not drawn),39 to 43
17,CCN1CCCC(NC2c3ccccc3Oc3ccccc32)C1 (stereo not drawn),47.5 to 48.5
18,Cc1cc(N)cc(C)c1Oc1ccc(O)c(C(C)C)c1,180 to 181
19,CCCCS(=O)(=O)Cc1ccc(C(=O)Nc2ccc3cc(CN4CCCC4)cnc3c2C)cc1,199
20,Cc1cccc(C)c1N(C(C)CN1C(=O)c2ccccc2C1=O)S(C)(=O)=O (stereo not drawn),188 to 190
21,O=C1OC(=O)c2cc(C#Cc3cccc4ccccc34)ccc21,220 to 222
22,OCC1OC(n2cnc3c(NCC(c4ccccc4)c4ccc(Cl)cc4)ncnc32)C(O)C1O (stereo not drawn),89 to 95
23,Cc1ccc(C(=C/C=C/C(=O)NCCCCc2cccnc2)c2ccc(C)cc2)cc1,144 to 146
24,COc1cc(C(C)=O)ccc1C1CCCCO1 (stereo not drawn),67 to 69
25,CCON=C(CC)C1=C(O)CC(c2ccc(NC(=O)OC)cc2)CC1=O (stereo not drawn),160 to 161

row,Compound,melting point [°C]
1,CNC(=O)Nc1ccsc1C(=O)OC,141 to 142
2,CC(C)c1nn2ccccc2c1C(O)C(C)C (stereo not drawn),69
3,O=C1c2ccccc2C(=O)c2oc(-c3ccc(Cl)cc3)nc21,> 260
4,O=c1[nH]cnc2cccnc12,343 to 345
5,Cc1sc(-c2ccc(OC(F)(F)F)cc2)cc1-c1nc(-c2c(F)cccc2Cl)nn1C,153 to 155
6,Cc1cc(C)n(-c2nccc(Nc3ccc(Cl)cc3)n2)n1,136 to 140
7,O=S(=O)(Nc1ncnc(Cl)c1-c1ccc(C(F)(F)F)cc1)c1ccc(Cl)cc1,262 to 264
8,COc1ccc(-c2nc(-c3cccnc3)c(C)n2C)c(OC)c1,129 to 131
9,Cc1c(OCc2ccccc2)c(=O)ccn1CCCCCC(=O)O,145 to 147
10,N#CSc1nc(I)ncc1Br,199 to 202
11,Cc1c(Cc2cccc(C(F)(F)F)c2)oc2c(-c3cc(C(=O)NCCC#N)ccn3)cccc12,200 to 201
12,CC(=O)[C@H]1[C@H](C(=O)O)C1(C)C (relative stereo),111
13,CCc1c(-c2ccc(O)cc2)c2c(C(=O)N(C)CCN(C)C)cc3cc(OC)cc1n32,190 to 200
14,O=C1CCC(N2Cc3c(OCc4ccc(Cn5cnnc5)cc4)cccc3C2=O)C(=O)N1 (stereo not drawn),173 to 175
15,Oc1ccc2nc(CCl)oc2c1,148 to 154
16,O=[N+]([O-])c1cccc(/C=C/c2nc(C3CCCC3)cs2)c1,65 to 70
17,Oc1nc2ccc3nccnc3c2nc1O,> 300
18,CCOC(=O)/C=C/C(=O)Nc1ccc2ncnc(Nc3cccc(Br)c3)c2c1,259 to 263
19,CC(C)c1ncc(CCCOc2nn(Cc3ccccc3)cc2CC(=O)O)c(Oc2ccc(Cl)cc2Cl)n1,98 to 99
20,Cc1oc(-c2ccc(S(C)(=O)=O)cc2)c(Oc2ccc(F)cc2F)c(=O)c1Cl,210
21,Cc1c(-c2ccnc3cc(Cl)ccc23)c2cc(NS(C)(=O)=O)ccc2n1CC(=O)O,195 to 198
22,OCCCc1oc(-n2cccn2)nc1-c1ccc(Cl)cc1,75 to 76
23,CC(O)(C=Cc1ccc(S(=O)(=O)N2CCCC2)cc1)C(F)(F)F (stereo not drawn),119 to 121
